We go through 10 compounds from PubChem BioAssay (NCI).

Structures are written as SMILES.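 Protocol summary: plate cells (96-well), add compound at 5 concentrations, incubate 48 h, interpolate endpoints linearly. GI50: concentration for 50% inhibition of growth. TGI is the concentration that stops growth completely.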

What all share (experiment): growth of human tumour cells (NCI), 48 h
Experiment [1] has as its system ACHN renal.
Experiment [2] deals with CAKI-1 renal.
Experiment [3] relates to EKVX NSCLC.
Experiment [4] deals with IGROV1 ovarian.
For experiment [5], the system named is OVCAR-4 ovarian.
Experiment [6] has as its system RXF 393 renal.
In experiment [7] the test system is SF-539 CNS.
For experiment [8], the system named is SK-MEL-5 melanoma.
Experiment [9] relates to SK-OV-3 ovarian.
For experiment [10], the system named is SNB-75 CNS.

Consider `CN1CCN(Cc2ccc(NC(=O)c3cccc(C#Cc4cnc(N)c5ncccc45)c3F)cc2C(F)(F)F)CC1`, for which the GI50 in [1] was 0.477 µM; in experiment [2], 0.53 µM; in experiment [3] it was 6.57 µM; in experiment [4], 0.476 µM; in experiment [5], 0.735 µM; in [6] it was 0.613 µM. The GI50 is 0.733 µM in experiment [7], 4.3 µM in experiment [8], 1.39 µM in experiment [9] and 1.59 µM in experiment [10]. Also, the TGI in experiment [1] came out at 1.09 µM; in [2] it was 6.34 µM; in experiment [3] it was 13.7 µM; in [4], 1.31 µM; in [5], 1.59 µM; in [6] it was 1.3 µM. In addition, the TGI in experiment [7] came to 1.5 µM; in experiment [8], 12.1 µM; in experiment [9] it was 7.46 µM; in [10], 7.48 µM.

As for `C/C(=N\Nc1nc2cccnc2s1)c1ccccn1`, the TGI came out at 1.07 µM in experiment [1]; 12.2 µM in experiment [2]; 5.73 µM in [3]; 1.3 µM in [4]; 29.5 µM in experiment [5]; 19.9 µM in [6]. Moreover, the TGI was 20.6 µM in experiment [7], 9.02 µM in experiment [8], 2.79 µM in [9] and 6.06 µM in experiment [10].

Regarding `CCOP(=O)(OCC)/C(C#N)=C/c1cnc[nH]1`, the TGI in experiment [1], in experiment [2], in experiment [3], in experiment [4], in experiment [5] and in experiment [6] was above 100 µM throughout. The TGI in [7], in experiment [8], in experiment [9] and in experiment [10] was above 100 µM each time.

As for `CCOc1cc2oc(C)cc(=O)c2c(OC)c1C=Nc1ccc(Cn2c(C)nc3ccccc32)cc1`, the TGI in experiment [1], in [2], in [3], in [4], in [5] and in experiment [6] was above 100 µM in each case. Besides, the TGI in experiment [7], in experiment [8], in experiment [9] and in [10] was above 100 µM in each case.

In the case of `CC(=O)C1=C(C)N(c2ccc(C)cc2)C2(O)C3=C(C(=O)c4ccccc4C3=O)C(O)=CC12Cl` (stereo not given), the TGI is above 100 µM in [1]; 87.1 µM in [2]; above 100 µM in [3]; 52.6 µM in experiment [4]; above 100 µM in [5]; 50.8 µM in [6]. In addition, the TGI in experiment [7] is above 100 µM; in experiment [8] it was 22.2 µM; in [9], above 100 µM; in [10], above 100 µM.

Take `COc1ccccc1/C=C1\NC(=S)N(/C=C2\C(=O)Oc3ccccc3C2=O)C1=O`: the TGI in experiment [1], in experiment [2], in [3], in experiment [4], in experiment [5] and in [6] was above 100 µM throughout. Also, the TGI was 96.7 µM in [7], 78.7 µM in experiment [8], above 100 µM in experiment [9] and above 100 µM in experiment [10].

On to `Brc1ccc2c(c1)-c1nc3nc4c(cc3cc1CC2)CCc1ccc(Br)cc1-4`, for which the TGI in [1], in [2], in experiment [3], in [4], in [5] and in [6] was above 100 µM each time. Further, the TGI in [7], in experiment [8], in experiment [9] and in [10] was above 100 µM throughout.

On to `CCN(CC)CCNc1ccc2nnn3c4ccc(O)cc4c(=O)c1c23`, for which the TGI came out at 14.2 µM in experiment [1]; 13.4 µM in [2]; 21.5 µM in experiment [3]; 20.5 µM in experiment [4]; 12.6 µM in experiment [5]; 5.96 µM in experiment [6]. For the same compound, the TGI came out at 18.4 µM in experiment [7], 15.7 µM in [8], 40.3 µM in experiment [9] and 14.1 µM in experiment [10].

`CCOC1Oc2ccccc2-c2nc(SC)ncc21` (stereo not given): the TGI in experiment [1], in experiment [2], in experiment [3], in [4], in experiment [5] and in [6] was above 100 µM each time. Besides, the TGI in [7], in [8], in experiment [9] and in [10] was above 100 µM in each case.

With `Cc1ccc2nc(C=Nc3ccc(Cl)cc3)cc(C)c2c1`, the TGI is above 96.4 µM in experiment [1]; above 76.7 µM in [2]; above 100 µM in [3]; 31.3 µM in experiment [4]; above 83.1 µM in experiment [5]; 62.3 µM in [6]. For the same compound, the TGI is 12.8 µM in [7], 25.2 µM in experiment [8], above 100 µM in [9] and 57.5 µM in [10].
